Each structure is given as a SMILES string.

Common to all, as to format: functional, cell-based
One assay relates to SMMC-7721. The assay is described as follows: Cytotoxicity against human SMMC7721 cells after 72 hrs by MTT assay. The conditions noted are these: SMMC-7721, 72 h. Background: Tetrazolium assays rely on reduction of a dye to a coloured formazan, in cell work by metabolically active cells.
A further assay has as its system MCF7. The assay is described as follows: Cytotoxicity against human MCF7 cells after 72 hrs by MTT assay. The conditions noted are these: MCF7, 72 h.
Another assay concerns MGC-803. The assay is described as follows: Cytotoxicity against human MGC803 cells after 72 hrs by MTT assay. The conditions noted are these: MGC-803, 72 h.
Assay [1] in a line: Cytotoxicity against human EC9706 cells after 72 hrs by MTT assay. To be noted: EC9706, 72 h.

The term IC50 denotes the point on the concentration scale where inhibition reaches its midpoint. The low end stands for inhibition by little substance, the high end for a need for much substance. Consider `O=C(NC1CCCCC1)N1CCN(C(=S)SCc2cn(Cc3ccccc3F)nn2)CC1`, for which the IC50 is over 128 µM with SMMC-7721, 85 µM in the assay with MCF7, 36.5 µM in the assay with MGC-803 and 84.9 µM in assay [1].

Take `NC(=O)N1CCN(C(=S)SCc2cn(Cc3ccccc3F)nn2)CC1`: the IC50 is over 128 µM in the assay with SMMC-7721, over 128 µM in the assay with MCF7, 11.3 µM in the assay with MGC-803 and 43.1 µM in assay [1].

Regarding `CCNC(=O)N1CCN(C(=S)SCc2cn(Cc3ccc(C)cc3)nn2)CC1`, the half-inhibitory concentration (IC50) is over 128 µM in the assay on SMMC-7721, over 128 µM with MCF7, 19.8 µM in the assay with MGC-803 and over 128 µM in assay [1].

Consider `CCN(C)C(=O)N1CCN(C(=S)SCc2cn(Cc3ccc(F)cc3)nn2)CC1`, for which the IC50 with SMMC-7721 amounted to 23.7 µM; with MCF7, 2.15 µM; in the assay with MGC-803, 1.55 µM; in assay [1], 14.3 µM.

Regarding `CCNC(=O)N1CCN(C(=S)SCc2cn(Cc3ccc(F)cc3)nn2)CC1`, the 50% inhibitory concentration (IC50) with SMMC-7721 was found to be 44.4 µM; with MCF7, 3.66 µM; with MGC-803, 2.17 µM; in assay [1] it was 27.8 µM.

Take `CCN(C)C(=O)N1CCN(C(=S)SCc2cn(Cc3ccccc3F)nn2)CC1`: the half-inhibitory concentration (IC50) in the assay on SMMC-7721 is 19.7 µM; with MCF7, 7.21 µM; in the assay on MGC-803 it was 5.86 µM; in assay [1] it was 15.6 µM.

Regarding `COc1ccc(Cn2cc(CSC(=S)N3CCN(C(N)=O)CC3)nn2)cc1`, the half-maximal inhibitory concentration (IC50) (in the assay on SMMC-7721; in the assay with MCF7; with MGC-803; in assay [1]) was over 128 µM in each case.

For `O=C(NC1CCCCC1)N1CCN(C(=S)SCc2cn(Cc3ccc(F)cc3)nn2)CC1`, the half-maximal inhibitory concentration (IC50) (in the assay with SMMC-7721; with MCF7; in the assay on MGC-803; in assay [1]) was over 128 µM each time.

With `O=C(NCc1ccccc1)N1CCN(C(=S)SCc2cn(Cc3ccccc3F)nn2)CC1`, the IC50 with SMMC-7721 was over 128 µM; with MCF7, 38.1 µM; in the assay with MGC-803, 13.3 µM; in assay [1] it was 38.1 µM.

For `Cc1ccc(Cn2cc(CSC(=S)N3CCN(C(=O)NC(C)C)CC3)nn2)cc1`, the half-inhibitory concentration (IC50) was over 128 µM in the assay with SMMC-7721, 4.63 µM with MCF7, 16.6 µM in the assay on MGC-803 and over 128 µM in assay [1].

As for `COc1ccc(Cn2cc(CSC(=S)N3CCN(C(=O)NC(C)C)CC3)nn2)cc1`, the IC50 with SMMC-7721 is over 128 µM; with MCF7 it was 19.6 µM; in the assay on MGC-803, 99.2 µM; in assay [1] it was over 128 µM.

Regarding `NC(=O)N1CCN(C(=S)SCc2cn(Cc3ccc(F)cc3)nn2)CC1`, the IC50 is over 128 µM in the assay with SMMC-7721, 22.1 µM in the assay on MCF7, 9.33 µM in the assay on MGC-803 and 62.7 µM in assay [1].

Take `COc1cc(Cn2cc(CSC(=S)N3CCN(C(=O)NC(C)C)CC3)nn2)cc(OC)c1OC`: the concentration for half-maximal inhibition (IC50) (in the assay with SMMC-7721; in the assay with MCF7; in the assay with MGC-803; in assay [1]) was over 128 µM each time.

In the case of `CCNC(=O)N1CCN(C(=S)SCc2cn(Cc3ccc(Cl)cc3)nn2)CC1`, the IC50 in the assay with SMMC-7721 is over 128 µM; in the assay on MCF7 it was over 128 µM; with MGC-803, 35.4 µM; in assay [1], over 128 µM.

As to `CC(C)(C)NC(=O)N1CCN(C(=S)SCc2cn(Cc3ccccc3F)nn2)CC1`, the IC50 in the assay with SMMC-7721 was over 128 µM; with MCF7, 18.8 µM; with MGC-803, 40.7 µM; in assay [1] it was 87.8 µM.

Turning to `CCNC(=O)N1CCN(C(=S)SCc2cn(Cc3cc(OC)c(OC)c(OC)c3)nn2)CC1`, the half-inhibitory concentration (IC50) in the assay on SMMC-7721 was over 128 µM; with MCF7, over 128 µM; with MGC-803, 101 µM; in assay [1] it was over 128 µM.

For `CCN(C)C(=O)N1CCN(C(=S)SCc2cn(Cc3ccc(OC)cc3)nn2)CC1`, the IC50 was over 128 µM in the assay on SMMC-7721, 21.4 µM in the assay on MCF7, 87.9 µM in the assay with MGC-803 and over 128 µM in assay [1].

For `CC(C)NC(=O)N1CCN(C(=S)SCc2cn(Cc3ccc(Cl)cc3)nn2)CC1`, the half-maximal inhibitory concentration (IC50) in the assay with SMMC-7721 was over 128 µM; in the assay on MCF7 it was over 128 µM; with MGC-803 it was 19.9 µM; in assay [1], 25.6 µM.

In the case of `CCNC(=O)N1CCN(C(=S)SCc2cn(Cc3ccc(OC)cc3)nn2)CC1`, the IC50 was over 128 µM in the assay on SMMC-7721, 97.6 µM in the assay with MCF7, over 128 µM in the assay with MGC-803 and over 128 µM in assay [1].

`NC(=O)N1CCN(C(=S)SCc2cn(Cc3ccc(Cl)cc3)nn2)CC1`: the IC50 (in the assay with SMMC-7721; in the assay with MCF7; in the assay with MGC-803; in assay [1]) was over 128 µM in each case.

For the molecule `COc1cc(Cn2cc(CSC(=S)N3CCN(C(N)=O)CC3)nn2)cc(OC)c1OC`, the IC50 (in the assay with SMMC-7721; in the assay on MCF7; in the assay on MGC-803; in assay [1]) was over 128 µM in each case.

Consider `CCNC(=O)N1CCN(C(=S)SCc2cn(Cc3ccccc3F)nn2)CC1`, for which the 50% inhibitory concentration (IC50) in the assay on SMMC-7721 is over 128 µM; in the assay on MCF7, 5.76 µM; in the assay on MGC-803, 2.83 µM; in assay [1], 23.7 µM.

`CCN(C)C(=O)N1CCN(C(=S)SCc2cn(Cc3ccc(C)cc3)nn2)CC1`: the half-maximal inhibitory concentration (IC50) with SMMC-7721 is over 128 µM; in the assay with MCF7, 40.1 µM; in the assay with MGC-803, 8.27 µM; in assay [1], 70.6 µM.

Regarding `Cc1ccc(Cn2cc(CSC(=S)N3CCN(C(N)=O)CC3)nn2)cc1`, the IC50 in the assay with SMMC-7721 was over 128 µM; in the assay with MCF7, over 128 µM; in the assay with MGC-803 it was 29.9 µM; in assay [1] it was over 128 µM.

On to `CCN(C)C(=O)N1CCN(C(=S)SCc2cn(Cc3ccc(Cl)cc3)nn2)CC1`, for which the IC50 in the assay on SMMC-7721 was found to be 38.2 µM; in the assay with MCF7 it was 14.7 µM; in the assay with MGC-803, 4.32 µM; in assay [1] it was 17.7 µM.

For the molecule `O=c1[nH]cc(F)c(=O)[nH]1` [FLUOROURACIL], the IC50 with SMMC-7721 worked out at 26.7 µM; with MCF7 it was 7.33 µM; in the assay with MGC-803, 7.14 µM; in assay [1] it was 0.32 µM.

For the molecule `CCN(C)C(=O)N1CCN(C(=S)SCc2cn(Cc3cc(OC)c(OC)c(OC)c3)nn2)CC1`, the half-maximal inhibitory concentration (IC50) is over 128 µM with SMMC-7721, 68.5 µM in the assay on MCF7, 85.7 µM with MGC-803 and over 128 µM in assay [1].

The record behind these values is ChEMBL document CHEMBL2390884, “Design, synthesis and antiproliferative activity studies of novel 1,2,3-triazole-dithiocarbamate-urea hybrids” (Eur J Med Chem, 2013).
